Reference: patent US20110143197A1, “ELECTRODE ACTIVE MATERIAL FOR POWER STORAGE DEVICE AND POWER STORAGE DEVICE, AND ELECTRONIC EQUIPMENT AND TRANSPORTATION EQUIPMENT” (priority 2008, published 2011)

Key:
[1] = Coin battery charge-discharge test (metal lithium negative electrode), Test Example 3
Excerpt: A coin battery as shown in FIG. 5 was fabricated as one example of the power storage device of the present invention. FIG. 5 is a vertical cross-sectional view schematically showing a configuration of a coin battery 1 that is one example of the power storage device of the present invention.
A positive electrode includes a positive electrode current collector 12 made of an aluminum foil and a positive electrode active material layer 13 formed on the positive electrode current collector 12 and containing the phenanthrenequinone-containing compound (1a). The positive electrode was produced in the same manner as in the electrode production method in Test Example 2. This positive electrode was disposed such that the positive electrode current collector 12 was brought into contact with the inner surface of a case 11, and a separator 14 made of a porous polyethylene sheet was placed on the positive electrode.
Then, a non-aqueous electrolyte was injected into the case 11. As the non-aqueous electrolyte, an electrolyte prepared by dissolving lithium hexafluorophosphate in a concentration of 1.25 mol/L in a solvent mixture containing ethylene carbonate and ethylmethyl carbonate (weight ratio 1:3) was used. […]
The charge-discharge capacity was calculated based on the initial discharge capacity of each of the coin batteries. […]

[2] = Solubility in an electrolyte (ultraviolet-visible absorption spectrum and visual inspection), Test Example 1; type: physicochemical; conditions: 5.0 mmol/l in 1.0 mol/L lithium fluoroborate in propylene carbonate
Procedure: The solubility of the phenanthrenequinone-containing compounds and the phenanthrenequinone-containing polymers obtained in Examples 1 to 10 in an electrolyte was evaluated in the following manner.
A phenanthrenequinone-containing compound or a phenanthrenequinone-containing polymer as obtained in Examples 1 to 10 was mixed with 20 cc of an electrolyte so as to attain a concentration of 5.0 mmol/l, thereby giving a test liquid. This test liquid was subjected to ultraviolet-visible absorption spectrum measurement to examine the solubility of each compound in the electrolyte. The ultraviolet-visible absorption spectrum measurement was performed under the following measurement conditions: a measurement range of 190 to 900 nm and a reference solution of a liquid electrolyte. A UV-2550 (trade name) manufactured by SHIMADZU CORPORATION was used as the measurement apparatus. A liquid electrolyte prepared by dissolving lithium fluoroborate in a concentration of 1.0 mol/L in propylene carbonate was used as the electrolyte.
As a comparative example, a solubility test was performed in the same manner as described above using 9,10-phenanthrenequinone.

[3] = Cyclic voltammetry of evaluation battery (electrode properties), Test Example 2; type: physicochemical
Procedure: The electrode properties of the phenanthrenequinone-containing compound (1a) obtained in Example 1 were examined in the following manner. First, in an argon box equipped with a gas purifier, 20 mg of the phenanthrenequinone-containing compound (1a) serving as an electrode active material and 20 mg of acetylene black serving as a conductive auxiliary agent were uniformly mixed under an argon gas atmosphere. To the resultant mixture was added 1 ml of N-methyl-2-pyrrolidone serving as a solvent, and 5 mg of polyvinylidene fluoride serving as a binder was further added thereto, followed by uniform mixing, to prepare a black slurry. The binder was used in order to bond the electrode active material and the conductive auxiliary agent together.
The slurry thus obtained was applied to the surface of a 20 μm-thick aluminum foil (current collector), and vacuum-dried for 2 hours at room temperature. After drying, a disc having a diameter of 13.5 mm was punched out of the resultant structure to produce an electrode in which an active material layer containing a mixture of the electrode active material, the conductive auxiliary agent, and the binder was formed.
The electrode thus obtained was used as a working electrode, and metal lithium was used for a counter electrode and a reference electrode. These electrodes were immersed in an electrolyte to fabricate an evaluation battery, and the potential sweeping was performed in a potential range from 2.0 to 4.0 V relative to lithium. The sweeping rate was 0.1 mV/sec. As the electrolyte, a liquid electrolyte prepared by dissolving lithium fluoroborate in a concentration of 1.0 mol/L in a solvent mixture containing propylene carbonate and ethylene carbonate (volume ratio 1:1) was used. FIG. 4 is a cyclic voltammogram of the evaluation battery using the electrode active material of the present invention [phenanthrenequinone-containing compound (1a)].

[4] = relative to lithium, sweep 2.0 to 4.0 V, 0.1 mV/sec

SMILES | appearance of electrolyte when battery disassembled after charging and discharging [1] | observation by visual inspection of electrolyte (coloration, dissolution) [2] | absorption peak in ultraviolet-visible absorption spectrum of test liquid (solubility in electrolyte) ([2]; measurement range 190 to 900 nm) | reversibility of redox reaction ([3]; cyclic voltammogram, FIG. 4) | dissolution from the electrode ([3]; during potential sweeping in liquid electrolyte) | current peak indicating the oxidation reaction [3, 4] | current peak indicating the second-step reduction reaction [3, 4] | current peak indicating the first-step reduction reaction ([3]; relative to lithium, sweep 2.0 to 4.0 V, 0.1 mV/sec, 1.0 mol/L lithium fluoroborate in propylene carbonate/ethylene carbonate 1:1)
O=C1C(=O)c2ccccc2-c2ccccc21 [9,10-phenanthrenequinone] | green coloration of the electrolyte | colored in yellow, as a result of the compound being entirely dissolved in the electrolyte | a large absorption peak was observed near 250 to 350 nm | – | – | – | – | –
O=C1C(=O)c2cc(-c3ccc(-c4ccc5c(c4)C(=O)C(=O)c4ccccc4-5)cc3)ccc2-c2ccccc21 [Compound 1a, 1,4-(9,10-phenanthraquinone)-benzene] | – | – | – | underwent a reversible redox reaction | no dissolution | around 3.5 V | around 2.6 V | around 3.1 V
